Reference: patent US10239887B2, “Positive allosteric modulators of the muscarinic acetylcholine receptor M4” (Vanderbilt University, priority 2016, dated 2019)

Target: T1, human mAChR M4 (Homo sapiens, UniProt P08173)
T1 sequence (P08173 1-479): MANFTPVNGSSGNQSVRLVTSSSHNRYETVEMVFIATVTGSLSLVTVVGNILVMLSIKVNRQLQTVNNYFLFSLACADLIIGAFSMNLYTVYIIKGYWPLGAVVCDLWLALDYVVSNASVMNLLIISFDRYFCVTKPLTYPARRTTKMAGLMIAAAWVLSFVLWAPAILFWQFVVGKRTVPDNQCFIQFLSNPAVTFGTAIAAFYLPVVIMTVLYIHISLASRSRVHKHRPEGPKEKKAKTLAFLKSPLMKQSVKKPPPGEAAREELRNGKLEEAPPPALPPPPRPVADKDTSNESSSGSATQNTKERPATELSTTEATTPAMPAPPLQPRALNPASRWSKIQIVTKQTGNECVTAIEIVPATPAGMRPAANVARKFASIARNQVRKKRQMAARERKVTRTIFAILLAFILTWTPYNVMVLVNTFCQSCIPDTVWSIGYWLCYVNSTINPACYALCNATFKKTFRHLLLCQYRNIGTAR
Assay: mAChR M4 cell-based functional assay (calcium flux), human M4
Settings: Table 10; for EC50: Human M4 EC50 (nM), calcium flux, PAM activity with EC20 acetylcholine; for Emax: % ACh maximum at 30 μM

SMILES | EC50 | Emax
Cc1cc(C)c2c(n1)sc1c(NC3CN(c4ncc(C(F)(F)F)cn4)C3)ncnc12 [Compound 207, 7,9-dimethyl-N-[1-[5-(trifluoromethyl)pyrimidin-2-yl]azetidin-3-yl]pyrido[3′,2′:4,5] thieno[3,2-d]pyrimidin-4-amine] | 6550 nM | 51.5%
Cc1cc(C)c2c(n1)sc1c(NC3CN(c4ccnc(C5(O)CCC5)c4)C3)ncnc12 [Compound 208, 1-[4-[3-[(7,9-dimethylpyrido [3′,2′:4,5]thieno[3,2-d]pyrimidin-4-yl)amino]azetidin-1-yl]-2-pyridyl]cyclobutanol] | 462 nM | 75.4%
Cc1c(Cl)nnc2sc3c(N4CCCC4)ncnc3c12 [Compound 209, 3-chloro-4-methyl-8-pyrrolidin-1-yl-pyrimido[4′,5′:4,5] thieno[2,3-c]pyridazine] | 55.5 nM | 89.9%
Cc1c(Cl)nnc2sc3c(NC4CCC4)ncnc3c12 [Compound 210, 3-chloro-N-cyclobutyl-4-methyl-pyrimido [4′,5′:4,5]thieno[2,3-c] pyridazin-8-amine] | 44.6 nM | 65.1%
Cc1c(Cl)nnc2sc3c(NCc4ccc(OC(F)F)nc4)ncnc3c12 [Compound 211, 3-chloro-N-[[6-(difluoromethoxy)-3-pyridyl]methyl]-4-methyl-pyrimido [4′,5′:4,5]thieno[2,3-c] pyridazin-8-amine] | 787 nM | 68.5%
COc1ccc(CNc2ncnc3c2sc2nnc(Cl)c(C)c23)cc1F [Compound 212, 3-chloro-N-[(3-fluoro-4-methoxy-phenyl)methyl]-4-methyl-pyrimido[4′,5′:4,5] thieno[2,3-c]pyridazin-8-amine] | 405 nM | 80%
Cc1c(Cl)nnc2sc3c(NCc4ccc(C(C)(C)O)cc4)ncnc3c12 [Compound 213] | – | 97.3%
Cc1c(Cl)nnc2sc3c(NC4CN(c5ncc(C(F)(F)F)cn5)C4)ncnc3c12 [Compound 214, 3-chloro-4-methyl-N-[1-[5-(trifluoromethyl)pyrimidin-2-yl]azetidin-3-yl] pyrimido[4′,5′:4,5] thieno[2,3-c]pyridazin-8-amine] | 420 nM | 105%
Cc1c(Cl)cnc2sc3c(N4CCCC4)ncnc3c12 [Compound 215, 8-chloro-9-methyl-4-pyrrolidin-1-yl-pyrido [3′,2′:4,5]thieno[3,2-d] pyrimidine] | 5980 nM | 45%
Cc1c(Cl)cnc2sc3c(N4CCC(F)(F)C4)ncnc3c12 [Compound 216, 8-chloro-4-(3,3-difluoropyrrolidin-1-yl)-9-methyl-pyrido [3′,2′:4,5]thieno[3,2-d] pyridimidine] | 685 nM | 52.4%
COCC1CN(c2ncnc3c2sc2ncc(Cl)c(C)c23)C1 [Compound 218, 8-chloro-4-[3-(methoxymethyl)azetidin-1-yl]-9-methyl-pyrido [3′,2′:4,5]thieno[2,3-d] pyrimidine] | 1020 nM | 51.3%
Cc1c(Cl)cnc2sc3c(N4CC5CC5C4)ncnc3c12 (centres unmarked) [Compound 219, 4-(3-azabicyclo[3.1.0]hexan-3-yl)-8-chloro-9-methyl-pyrido [3′,2′:4,5]thieno[3,2-d] pyrimidine] | 555 nM | 47.8%
Cc1c(Cl)cnc2sc3c(N4CCC(F)C4)ncnc3c12 (centres unmarked) [Compound 220, 8-chloro-4-(3-fluoropyrrolidin-1-yl)-9-methyl-pyrido [3′,2′:4,5]thieno[3,2-d] pyrimidine] | 885 nM | 63.8%
Cc1c(Cl)cnc2sc3c(N4CCC4)ncnc3c12 [Compound 221, 4-(azetidin-1-yl)-8-chloro-9-methyl-pyrido[3′,2′:4,5] thieno[3,2-d] pyrimidine] | 867 nM | 40.6%
Cc1c(Cl)cnc2sc3c(N4CC(F)(F)C4)ncnc3c12 [Compound 223, 8-chloro-4-(3,3-difluoroazetidin-1-yl)-9-methyl-pyrido [3′,2′:4,5]thieno[3,2-d] pyrimidine] | 931 nM | 44%
